Test results as given in paper PMC9249808, “A novel lipidic peptide with potential to promote balanced effector-regulatory T cell responses” (Scientific Reports, 2022).

Columns and labels:
Lck = test: Kinase profiling, Lck; type: biochemical; conditions: Eurofins KinaseProfiler, [γ-33P-ATP] scintillation, 0.003-10 uM, 2% DMSO, no pre-incubation, Fig. 6c, 6e
Procedure: Non-cell-based kinase profiling assays were performed by Eurofins (France). All compounds were prepared to 50 × final assay concentration in 100% DMSO. This working stock of the compound was added to assay wells as the first component in the reaction, followed by the remaining components as detailed in the specific assay protocols below. In the standard KinaseProfiler service, there was no pre-incubation step between the compound and the kinase prior to initiation of the reaction. Control wells contained all components of the reaction, except the compound of interest; however, DMSO (at a final concentration of 2%) was included in these wells to control for solvent effects. […] The reference inhibitors for each kinase are indicated in the methods for each kinase assay. […] Kinase activities were assessed in the presence of compounds at a concentration range of 0.003 -10 uM and the following kinases were tested: c-Src, Lck, Jak1, Jak2, Tyk2, CaMKIV and HPK1 (MAP4K1). Reactions between IK14004, substrates and MgAcetate/[γ^33P-ATP] mixes for each respective kinase were stopped by the addition of phosphoric acid and reaction mixtures spotted on P30 filtermats for scintillation according to the detailed methods available from Eurofins. The activities of Lck and c-Src were also assessed in the presence of the unconjugated components of IK14004, i.e., […] (IK14000) and the dodecanoic acid moiety [(2)Adod]4 (IK00041) and a lipidic peptide containing substituted amino acid residues (IK14DE04).

[1] = tested on: CD4+ T cells within PBMC cultures; test: Intracellular IFN-γ in CD4+ T cells within PBMC cultures (flow cytometry); type: cell-based, human; conditions: anti-CD3, 24 h, MFI, n = 4, Fig. 5c
Procedure: (§1) PBMCs were resuspended in RPMI-10 (RPMI-1640; ThermoFisher) supplemented with 10% heat inactivated Foetal Bovine Serum (LabTech), 100 U/mL penicillin, 100 µg/mL streptomycin (ThermoFisher), 2 mM L-glutamine (ThermoFisher), and 50 µM β-mercaptoethanol (ThermoFisher) at 1 × 10^6 cells/mL and plated at a density of 1 × 10^5 per well (100 µL) in 96-well, flat-bottom culture plates. PBMCs were stimulated with 1 µg/mL of soluble anti-CD3 (BioLegend). The lipidic peptide, IK14004, and IK14000, i.e., […] minus conjugation to [{2}Adod]4, were solubilised as a 1 mM stock solution in sterile milliQ water (Lonza) and added to wells at a final volume of 50 µL per well together with soluble anti-CD3 (1 µg/mL final, 50 µL per well) (Biolegend). To test the effect of peptides, cells were cultured for 24–72 h at 37 °C and 5% CO2. Vehicle controls in peptide-based experiments comprised 0.13% sterile milliQ water in culture medium whereas 0.1% DMSO in culture medium was used as vehicle control for comparison with the Lck inhibitor, A-770041, in the absence of peptides. […]

[2] = tested on: CD4+ T cells within T cell cultures; test: Flow cytometry of CD4+ T cells within isolated CD3+ T cell cultures (anti-CD3/anti-CD28); type: cell-based, human; conditions: anti-CD3/anti-CD28, 72 h, MFI, Fig. 1b (IK14004), Fig. 1e (IK14000)
Procedure: CD3^+ T cells were isolated from PBMCs by negative selection using immune-magnetic separation (Stem cell kits), resuspended in complete medium as used for PBMCs at 0.5 × 10^6/mL and plated at a density of 5 × 10^4 per well (100 µL) in 96-well, flat bottom culture plates. CD4^+ and CD8^+ T cell populations were isolated by immunomagnetic separation and resuspended in RPMI-10 at 0.5 × 10^6/mL with a plating density of 0.5 × 10^5 per well. Either the lipidic peptide, IK14004, or IK14000 ([…]) was added to wells at a final volume of 50 µL per well, together with anti-CD3 anti-CD28 coated Dynabeads (ThermoFisher) at a 4:1 cell:bead ratio (1.25 × 10^4/well, 50 µL volume) and cells cultured for 72 h at 37 °C and 5% CO2. […]
For flow cytometry and ELISA experiments, data from IK14004 and vehicle groups were analysed using parametric statistical procedures. […]

c-Src = conditions: cited from earlier work
Description: Given the role of NFAT proteins in regulating transcription of IFN-γ[46],[47], suppression of NFAT attenuates IFN-γ-activated endogenous IL-12p40 mRNA expression. In addition, IFN-γ production in DCs is dependent on a Janus kinase (JAK) family member, Tyk2, that signals via signal transducers and activators of transcription (STATs)[49] and within DCs, c-Src contributes to c ... || Given the role of Lck in upstream signalling upon TCR activation[34],[35] which leads to IL-2 production[10],[11], we tested the effect of a known Lck inhibitor, A-770041 on IL-2 expression within supernatants from stimulated T cell cultures after 72 h.

[3] = tested on: CD8+ T cells within PBMC cultures; test: Intracellular IFN-γ in CD8+ T cells within PBMC cultures (flow cytometry); type: cell-based, human; conditions: anti-CD3, 24 h, MFI, n = 4, Fig. 5d
Procedure: as §1

Sequence: RSKAKNPLYR [IK14000]
- Lck activity (Lck): neither IK14000 nor IK00041 had an effect
- intracellular expression of IFN-γ in CD4+ T cells [1]: unchanged
- CD25 expression in CD4+ T cells [2]: decrease in CD25 expression in CD4+ T cells at higher concentrations
- c-Src activity, earlier report (c-Src): inhibits c-Src activity
- intracellular expression of IFN-γ in CD8+ T cells [3]: unchanged
